Article PMC7618104, “The GLP-1 analogue, exendin-4, improves bone material properties and strength through a central relay in ovariectomized mice” (American journal of physiology. Endocrinology and metabolism, 2025)

Tests used:
Assay type in all cases: in vivo, mouse (BALB/cJRj, female)
[1] = tested on: ovariectomized BALB/c mice; experiment: Plasma levels of calcitonin and bone remodeling markers (CTx-I, P1NP); settings: 28 days, n=8; for Calcitonin (plasma) / P1NP (plasma) / CTx-I (plasma): mean ± SD
Experimental: (§1) Eight animals were randomly assigned to each group.
(§2) All animals received intraperitoneal administration of calcein green (10 mg/kg) 10 days and 2 days before sacrifice. Animals were housed in social groups and maintained in a 12 h:12 h light/dark cycle. They had free access to water and food. At necropsy, blood was collected by intracardiac aspiration into EDTA-treated tubes. Blood samples were centrifuged at 13,000 g for 15 min, aliquoted and stored at -80°C until plasma levels of exendin-4 (#EK-070-94, Phoenix pharmaceuticals, Burlingame, CA) and calcitonin (NBP3-06734, Bio-Techne Ltd, Abingdon, UK) were measured according to the manufacturer’s protocol. Plasma levels of the bone remodeling markers C-terminal telopeptide of collagen type I (CTx-I – RatLaps, Immunodiagnostic Systems Ltd, Boldon, UK) and N-terminal propeptide of type I collagen (P1NP - Rat/mouse P1NP, Immunodiagnostic Systems Ltd) were measured according to the manufacturers’ recommendation. Right femurs were wrapped in saline-soaked gauze and frozen at -20°C until use. Right tibiae were fixed in ethanol-based fixative and stored at 4°C until use. No specific inclusion or exclusion criteria were applied for animal selection. […] Additionally, correct implantation of the cerebral perfusion cannulas for icv-administered animals was verified at necropsy. All animals meeting these criteria were included in the study.

[2] = tested on: ovariectomized BALB/c mice; experiment: microCT cortical bone microstructure, midshaft femur; settings: 28 days, OVX, n=8
Experimental: as §1
All animals received intraperitoneal administration of calcein green (10 mg/kg) 10 days and 2 days before sacrifice. Animals were housed in social groups and maintained in a 12 h:12 h light/dark cycle. They had free access to water and food. At necropsy, blood was collected by intracardiac aspiration into EDTA-treated tubes. Blood samples were centrifuged at 13,000 g for 15 min, aliquoted and stored at -80°C until plasma levels of exendin-4 (#EK-070-94, Phoenix pharmaceuticals, Burlingame, CA) and calcitonin (NBP3-06734, Bio-Techne Ltd, Abingdon, UK) were measured according to the manufacturer’s protocol. Plasma levels of the bone remodeling markers C-terminal telopeptide of collagen type I (CTx-I – RatLaps, Immunodiagnostic Systems Ltd, Boldon, UK) and N-terminal propeptide of type I collagen (P1NP - Rat/mouse P1NP, Immunodiagnostic Systems Ltd) were measured according to the manufacturers’ recommendation. Right femurs were wrapped in saline-soaked gauze and frozen at -20°C until use. […]
MicroCT analyses were performed at the proximal metaphysis of the right tibia and at the mid-diaphysis of the right femur with a Bruker 1272 microtomograph operated at 70 kV, 140 μA, 1000 ms integration time and imaging in ethanol 70. […] The region analyzed (0.5 mm) was centered at the midpoint between the third trochanter and the distal growth plate. […]

[3] = tested on: ovariectomized BALB/c mice; experiment: Bone histomorphometry at the proximal tibia metaphysis; settings: 28 days, n=8; for BFR/BS / MAR / MS/BS / O.Th / OS/BS / N.Oc/B.Pm / Oc.S/BS: mean ± SD; for N.Oc/B.Pm / Oc.S/BS: p<0.001 vs. OVX+Vehicle
Experimental: as §1, §2
After microCT, right tibias were embedded undecalcified in polymethylmethacrylate (pMMA) at 4°C as previously reported ([32]). Seven micron-thick sections were made with a sledge microtome (Polycut S, Leica, Nanterre, France) prior to histoenzymatic detection of TRAP or Goldner trichrome staining. Dynamic histomorphometry was perfomed after counterstaining the bone matrix with calcein blue. All histomorphometrical parameters were measured with an in-house written application developed in Matlab R2023b (The Mathworks, Natick, CA, RRID:SCR_001622) according to guidelines and nomenclature proposed by the American Society for Bone and Mineral Research ([33]).

[4] = tested on: ovariectomized BALB/c mice; experiment: microCT trabecular microstructure, proximal tibia metaphysis; settings: 28 days, vs OVX+vehicle, n=8
Experimental: as §1, §2
MicroCT analyses were performed at the proximal metaphysis of the right tibia and at the mid-diaphysis of the right femur with a Bruker 1272 microtomograph operated at 70 kV, 140 μA, 1000 ms integration time and imaging in ethanol 70. The isotropic pixel size was fixed at 4 μm, the rotation step at 0.25° and exposure was performed with a 0.5 mm aluminum filter. Hydroxyapatite phantoms (250 mg/cm^3 and 750 mg/cm^3) were used for calibration. Reconstruction of 2D projections was done with the NRecon software (Version 1.6.10.2). For tibial analysis, a trabecular volume of interest was located 0.5 mm below the growth plate at the proximal end and extended 2 mm down. Trabecular bone was separated from cortical bone with an automatic contouring script in CTan software (Version 1.20.8.0). The right femur was used for cortical microarchitecture. The region analyzed (0.5 mm) was centered at the midpoint between the third trochanter and the distal growth plate. Bone was segmented from soft tissue using global thresholding set at 300 mg/cm^3 for trabecular bone and 700 mg/cm^3 for cortical bone. All histomorphometrical parameters were measured with the CTan software according to guidelines and nomenclature proposed by the American Society for Bone and Mineral Research ([31]).

[5] = tested on: ovariectomized BALB/c mice; experiment: 3-point bending of femur (whole-bone strength), ovariectomy-induced bone fragility model; settings: 28 days, n=8
Experimental: as §1, §2
The whole-bone strength of right femurs was assessed by 3-point bending in accordance with published guidelines ([34]). Three-point bending strength was measured with a constant span length of 10 mm. Bones were tested in the antero-posterior axis with the posterior surface facing upward, centered on the support and the pressing force was applied vertically to the midshaft of the bone. Each bone was tested fully hydrated and at room temperature with a loading speed of 2 mm.min^-1 until failure with a 500 N load cell on an Instron 5942 device (Instron, Elancourt, France) and the load-displacement curve was recorded at a 100 Hz rate by the Bluehill 3 software (Instron). Ultimate load, ultimate displacement, stiffness and work to fracture were calculated as indicated in ([34]). The yield point was determined as the point at which a regression line that represents a 10% loss in stiffness crosses the load-displacement curve. Post-yield displacement was computed as the displacement between yielding and fracture. Peak bending moment was calculated as one-half the ultimate load multiplied by one-half the span length ([34]). The peak bending moment is related to bone tissue material properties and bone midshaft geometry by the following equation: M=σb×IML/cAP

[6] = s.c. Ex-4 ~700 pmol/day, vs OVX+vehicle, p<0.001
[7] = icv Ex-4 70 pmol/day, vs OVX+vehicle, p<0.001

## exendin-4 [Ex-4]
[1]; OVX + Ex-4, icv 70 pmol/day
  Calcitonin (plasma): 47 ± 10 pg/mL
  P1NP (plasma): 28.0 ± 2.2 ng/mL
[1]; OVX + Ex-4, icv 70 pmol/day, p<0.01 vs. OVX+Vehicle
  CTx-I (plasma): 8.5 ± 1.7 ng/mL
[1]; OVX + Ex-4, s.c. ~700 pmol/day
  P1NP (plasma): 25.2 ± 4.0 ng/mL
[1]; OVX + Ex-4, s.c. ~700 pmol/day, p<0.001 vs. OVX+Vehicle
  Calcitonin (plasma): 111 ± 15 pg/mL
[1]; OVX + Ex-4, s.c. ~700 pmol/day, p<0.05 vs. OVX+Vehicle
  CTx-I (plasma): 11.7 ± 2.0 ng/mL
[1]; icv Ex-4 70 pmol/day, OVX
  circulating calcitonin levels: no effects on circulating calcitonin levels
[1]; icv Ex-4 70 pmol/day, vs OVX+vehicle, p=0.005
  change in plasma CTX-I: -38%
[1]; [6]
  increase in plasma circulating calcitonin: 152%
[1]; s.c. Ex-4 ~700 pmol/day, vs OVX+vehicle, p=0.012
  change in plasma CTX-I: -20%
[2]; icv Ex-4 70 pmol/day
  cortical bone microstructure: unable to demonstrate significant changes in cortical bone microstructure
[2]; s.c. Ex-4 ~700 pmol/day
  cortical bone microstructure: did not alter cortical bone microstructure
[3]; OVX + Ex-4, icv 70 pmol/day
  BFR/BS: 0.282 ± 0.065 μm^3/μm^2/day
  MAR: 2.17 ± 0.41 μm/day
  MS/BS: 12.9 ± 1.2%
  O.Th: 4.7 ± 0.7 μm
  OS/BS: 3.0 ± 2.2%
  N.Oc/B.Pm: 1.01 ± 0.27 ^*** mm^-1
  Oc.S/BS: 0.96 ± 0.27 %
[3]; OVX + Ex-4, s.c. ~700 pmol/day
  BFR/BS: 0.301 ± 0.059 μm^3/μm^2/day
  MAR: 2.30 ± 0.35 μm/day
  MS/BS: 13.0 ± 1.3%
  O.Th: 4.8 ± 0.8 μm
  OS/BS: 2.4 ± 1.0%
  N.Oc/B.Pm: 1.11 ± 0.26
  Oc.S/BS: 0.99 ± 0.28 %
[3]; [7]
  change in number of osteoclasts: -51%
  change in osteoclast surfaces: -45%
[3]; [6]
  change in number of osteoclasts and osteoclast surfaces: -41%
[4]; icv Ex-4 70 pmol/day, p<0.001
  change in Tb.N: 4%
[4]; icv Ex-4 70 pmol/day, p=0.005
  change in BV/TV: +6%
[4]; s.c. Ex-4 ~700 pmol/day, p<0.001
  increase in Tb.N: 6%
[4]; s.c. Ex-4 ~700 pmol/day, p=0.002
  increase in BV/TV: 11%
[5]; [7]
  increase in energy-to-fracture: 8%
  increase in post-yield displacement: 8%
[5]; icv Ex-4 70 pmol/day, vs OVX+vehicle, p=0.010
  increase in ultimate load: 7%
[5]; s.c. Ex-4 ~700 pmol/day, OVX, p=0.817
  ultimate load: did not prevent the impact of ovariectomy on ultimate load
[5]; s.c. Ex-4 ~700 pmol/day, OVX, p=0.984
  stiffness: did not prevent the impact of ovariectomy
[5]; s.c. Ex-4 ~700 pmol/day, vs OVX+vehicle, p=0.020
  increase in energy-to-fracture: 24%
[5]; s.c. Ex-4 ~700 pmol/day, vs OVX+vehicle, p=0.025
  increase in post-yield displacement: 18%
